These results are taken from ChEMBL document CHEMBL1137662, “Effect of oral treatment with hexadecyloxypropyl-[(S)-9-(3-hydroxy-2- phosphonylmethoxypropyl)adenine] [(S)-HPMPA] or octadecyloxyethyl-(S)-HPMPA on cowpox or vaccinia virus infections in mice” (Antimicrob Agents Chemother, 2007).

For data set [1], the system named is Cowpox virus. In words: Antiviral activity against Cowpox virus Brighton infected BALB/c mouse assessed as mortality at 3 mg/kg, po treated for 5 days after 48 hrs of viral inoculation. In kind it is functional, Cowpox virus (Brighton Red).
Data set [2] deals with Vaccinia virus. In words: Antiviral activity against Vaccinia virus WR in HFF cells assessed as reduction of viral replication after 3 days. In kind it is functional, organism-based. Conditions: Orthopoxvirus vaccinia, 72 h.
Data set [3] can be described thus: Cytotoxicity against HFF cells after 7 days. In kind it is cell-based. Conditions: human.
The subject of data set [4] is Cowpox virus. As to the kind of experiment: Antiviral activity against Cowpox virus Brighton infected BALB/c mouse assessed as log reduction of viral titer per gram of spleen at 30 mg/kg, po treated for 5 days after 24 hrs of viral inoculation. In kind it is functional, Cowpox virus (Brighton Red).
Data set [5] has as its system Cowpox virus. In words: Antiviral activity against Cowpox virus Brighton infected BALB/c mouse assessed as log reduction of viral titer per gram of kidney at 30 mg/kg, po treated for 5 days after 24 hrs of viral inoculation. In kind it is functional, Cowpox virus (Brighton Red).
Data set [6] has as its system Cowpox virus. As to the kind of experiment: Toxicity in Cowpox virus Brighton infected BALB/c mouse assessed as survival at 30 mg/kg, po treated for 5 days after 24 hrs of viral inoculation. Further details: dose 30 mg/kg. Conditions: Cowpox virus (Brighton Red). In kind it is functional, organism-based.
Data set [7] has as its system Cowpox virus. In words: Antiviral activity against Cowpox virus Brighton infected BALB/c mouse assessed as mean death day at 10 mg/kg, po treated for 5 days after 48 hrs of viral inoculation. In kind it is functional, Cowpox virus (Brighton Red).
Data set [8] concerns Cowpox virus. As to the kind of experiment: Antiviral activity against Cowpox virus Brighton infected BALB/c mouse assessed as mean death day at 30 mg/kg, po treated for 5 days after 48 hrs of viral inoculation. In kind it is functional, Cowpox virus (Brighton Red).
The subject of data set [9] is Cowpox virus. As to the kind of experiment: Antiviral activity against Cowpox virus Brighton infected BALB/c mouse assessed as mortality at 10 mg/kg, po treated for 5 days after 72 hrs of viral inoculation. In kind it is functional, Cowpox virus (Brighton Red).
Data set [10] concerns Vaccinia virus. In words: Antiviral activity against Vaccinia virus WR infected BALB/c mouse assessed as mean death day at 30 mg/kg, po treated for 5 days after 72 hrs of viral inoculation. In kind it is functional, Orthopoxvirus vaccinia.
For data set [11], the system named is Vaccinia virus. As to the kind of experiment: Antiviral activity against Vaccinia virus WR infected BALB/c mouse assessed as mean death day at 3 mg/kg, po treated for 5 days after 24 hrs of viral inoculation. In kind it is functional, Orthopoxvirus vaccinia.
Data set [12] relates to Vaccinia virus. In words: Antiviral activity against Vaccinia virus WR infected BALB/c mouse assessed as mean death day at 30 mg/kg, po treated for 5 days after 24 hrs of viral inoculation. In kind it is functional, Orthopoxvirus vaccinia.
Data set [13] deals with Liver. In words: Drug level in Swiss Webster mouse liver at 10 mg/kg, ip after 1 hr. In kind it is ADME, organism-based. The arrangement: dose 10 mg/kg, route intraperitoneal. Conditions: in vivo.
The subject of data set [14] is Liver. In words: Drug level in Swiss Webster mouse liver at 10 mg/kg, po after 3 hrs. In kind it is ADME, organism-based. Further details: dose 10 mg/kg, route oral. Conditions: in vivo.
Data set [15] has as its system Mus musculus. As to the kind of experiment: Plasma concentration in Swiss Webster mouse at 10 mg/kg, po after 24 hrs by liquid scintillation counting. In kind it is ADME, organism-based. Further details: dose 10 mg/kg, route oral. Conditions: in vivo.
A short description of data set [16]: Oral bioavailability in Swiss Webster mouse at 10 mg/kg. In kind it is ADME, organism-based. Conditions: in vivo.
Data set [17] has as its system Mus musculus. As to the kind of experiment: Plasma concentration in Swiss Webster mouse at 10 mg/kg, ip after 24 hrs by liquid scintillation counting. In kind it is ADME, organism-based. The arrangement: dose 10 mg/kg, route intraperitoneal. Conditions: in vivo.
Data set [18] deals with Mus musculus. In words: AUC (0 to 24hrs) in Swiss Webster mouse plasma at 10 mg/kg, po. In kind it is ADME, organism-based. Further details: time < 24 hr, dose 10 mg/kg, route oral. Conditions: in vivo.
The nature of data set [19]: Tmax in Swiss Webster mouse at 10 mg/kg, po. Conditions: in vivo. In kind it is ADME, organism-based. Further details: dose 10 mg/kg, route oral.
In data set [20] the test system is Mus musculus. In words: AUC (0 to 24hrs) in Swiss Webster mouse plasma at 10 mg/kg, ip. In kind it is ADME, organism-based. The arrangement: time < 24 hr, dose 10 mg/kg, route intraperitoneal. Conditions: in vivo.
The nature of data set [21]: Tmax in Swiss Webster mouse at 10 mg/kg, ip. In kind it is ADME, organism-based. The arrangement: dose 10 mg/kg, route intraperitoneal. Conditions: in vivo.
A short description of data set [22]: Cmax in Swiss Webster mouse at 10 mg/kg, ip. In kind it is ADME, organism-based. The arrangement: dose 10 mg/kg, route intraperitoneal. Conditions: in vivo.
Data set [23] in a line: Cmax in Swiss Webster mouse at 10 mg/kg, po. In kind it is ADME, organism-based. The arrangement: dose 10 mg/kg, route oral. Conditions: in vivo.
Data set [24] is described as follows: Half life in Swiss Webster mouse at 10 mg/kg, ip. In kind it is ADME, organism-based. The arrangement: dose 10 mg/kg, route intraperitoneal. Conditions: in vivo.
Data set [25] in a line: Half life in Swiss Webster mouse at 10 mg/kg, po. In kind it is ADME, organism-based. The arrangement: dose 10 mg/kg, route oral. Conditions: in vivo.
For data set [26], the system named is Lung. As to the kind of experiment: Drug level in Swiss Webster mouse lung at 10 mg/kg, po after 3 hrs. In kind it is ADME, organism-based. Further details: dose 10 mg/kg, route oral. Conditions: in vivo.
In data set [27] the test system is Kidney. As to the kind of experiment: Drug level in Swiss Webster mouse kidney at 10 mg/kg, po after 3 hrs. In kind it is ADME, organism-based. Conditions: in vivo. The arrangement: dose 10 mg/kg, route oral.
Data set [28] concerns Lung. In words: Drug level in Swiss Webster mouse lung at 10 mg/kg, ip after 1 hr. In kind it is ADME, organism-based. Further details: dose 10 mg/kg, route intraperitoneal. Conditions: in vivo.
Data set [29] concerns Kidney. In words: Drug level in Swiss Webster mouse kidney at 10 mg/kg, ip after 1 hr. Conditions: in vivo. Further details: dose 10 mg/kg, route intraperitoneal. In kind it is ADME, organism-based.

Regarding `CCCCCCCCCCCCCCCCCCOCCOP(=O)(O)CO[C@H](CO)Cn1cnc2c(N)ncnc21`, the Activity is 80% in the data set with Cowpox virus [1]; “Not toxic” in the data set with Cowpox virus [6]; 11 days in the data set with Cowpox virus [7]; 9.5 days in the data set on Cowpox virus [8]; 67% in the data set with Cowpox virus [9]; 10.5 days in the data set with Vaccinia virus [10]. Further, the Activity in the data set on Vaccinia virus [11] worked out at 8.8 days; with Vaccinia virus [12] it was 8.3 days. In addition, the EC50 – broadly, the concentration that produces a half-maximal response – in the data set on Vaccinia virus [2] turned out to be 100 nM. Besides, the CC50 (in general, the concentration giving 50% cytotoxicity) at 168 h in data set [3] amounted to 1500 nM. The log10PFU with Cowpox virus [4] and in the data set on Cowpox virus [5] was 2.5 g throughout.

With `CCCCCCCCCCCCCCCCOCCCOP(=O)(O)CO[C@H](CO)Cn1cnc2c(N)ncnc21`, the Activity in the data set on Cowpox virus [1] is 87%; in the data set on Cowpox virus [6], “Not toxic”; with Cowpox virus [7], 12.3 days; in the data set on Cowpox virus [8], 16.5 days; in the data set with Cowpox virus [9] it was 73%; with Vaccinia virus [10], 8 days. Also, the Activity in the data set with Vaccinia virus [11] and in the data set with Vaccinia virus [12] was 7 days in each case. Moreover, the Drug uptake with Liver [13] amounted to 130 nmol/g; with Liver [14] it was 21 nmol/g; in the data set on Lung [26] it was 1.9 nmol/g; in the data set with Kidney [27] it was 5.1 nmol/g; in the data set with Lung [28], 2.8 nmol/g; with Kidney [29], 23 nmol/g. Moreover, the concentration with Mus musculus [15] is 30 nM; with Mus musculus [17], 80 nM. Also, in data set [16], the bioavailability (as a rule, dose-corrected exposure relative to a reference, in per cent) amounted to 74%. Moreover, the AUC came out at 12.1 nmol·h/g in the data set with Mus musculus [18] and 16.4 nmol·h/g in the data set with Mus musculus [20]. The Tmax – broadly, the time from dosing to the highest level – amounted to 1 h in [19] and 3 h in [21]. The Cmax – broadly, the peak of the concentration-time curve – in data set [22] amounted to 2200 nM; in data set [23], 1100 nM. Besides, the results for the half-life in data set [24] and in [25] were 2.5 h and 11.5 h, respectively. In addition, the EC50 in the data set with Vaccinia virus [2] stood at 300 nM. Moreover, it took 9700 nM to reach half-maximal cytotoxicity in data set [3] (CC50 at 168 h). The log10PFU in the data set with Cowpox virus [4] and in the data set with Cowpox virus [5] was 2.5 g each time.
